Experimental data as given in patent US10160755B2 (Plexxikon Inc., priority 2015, dated 2018).

Experiments:
FLT3-D835Y = biological target: T1, FLT3-D835Y (Homo sapiens, UniProt P36888, D835Y); assay: FLT3-D835Y biochemical kinase assay (AlphaScreen)
T1 construct: purchased Invitrogen PV3967
T1 sequence (P36888 27-993 D835Y): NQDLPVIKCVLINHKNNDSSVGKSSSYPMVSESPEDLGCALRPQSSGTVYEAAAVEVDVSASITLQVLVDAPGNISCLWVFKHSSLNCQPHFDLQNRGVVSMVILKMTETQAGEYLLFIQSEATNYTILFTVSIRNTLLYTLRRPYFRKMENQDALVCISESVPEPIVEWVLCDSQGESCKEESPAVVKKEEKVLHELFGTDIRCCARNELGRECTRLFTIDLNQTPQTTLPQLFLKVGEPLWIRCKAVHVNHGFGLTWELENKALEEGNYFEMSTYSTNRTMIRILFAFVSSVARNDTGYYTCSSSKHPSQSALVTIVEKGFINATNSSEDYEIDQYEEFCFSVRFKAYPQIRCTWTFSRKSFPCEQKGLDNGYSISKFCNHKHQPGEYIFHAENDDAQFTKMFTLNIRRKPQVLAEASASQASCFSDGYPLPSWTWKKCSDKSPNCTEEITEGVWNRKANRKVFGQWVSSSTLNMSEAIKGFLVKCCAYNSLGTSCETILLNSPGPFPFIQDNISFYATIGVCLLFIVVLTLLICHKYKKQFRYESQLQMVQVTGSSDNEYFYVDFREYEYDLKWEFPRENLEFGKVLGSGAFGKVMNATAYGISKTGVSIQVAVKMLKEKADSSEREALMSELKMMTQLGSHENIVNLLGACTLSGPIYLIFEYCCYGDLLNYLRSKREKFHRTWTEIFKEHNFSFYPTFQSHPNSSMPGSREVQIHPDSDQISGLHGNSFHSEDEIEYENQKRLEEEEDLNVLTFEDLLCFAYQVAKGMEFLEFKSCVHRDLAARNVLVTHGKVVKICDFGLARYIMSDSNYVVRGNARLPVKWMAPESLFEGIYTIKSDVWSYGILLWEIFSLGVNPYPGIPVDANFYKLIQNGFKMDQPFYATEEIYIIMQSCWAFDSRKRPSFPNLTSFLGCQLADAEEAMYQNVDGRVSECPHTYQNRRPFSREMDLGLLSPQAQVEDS
In short: (§1)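 Compounds were tested against recombinant enzyme using AlphaScreen detection of tyrosine-phosphorylated biotin-poly(Glu4-Tyr) (30 nM final). The ATP concentration differed by construct: 10 μM for D835Y, 100 μM for ITD.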

FLT3-ITD = biological target: T2, FLT3-ITD (Homo sapiens, UniProt P36888); assay: FLT3-ITD biochemical kinase assay (AlphaScreen)
T2 construct: FLT3-ITD; Invitrogen #PV6190
T2 sequence (P36888 1-993): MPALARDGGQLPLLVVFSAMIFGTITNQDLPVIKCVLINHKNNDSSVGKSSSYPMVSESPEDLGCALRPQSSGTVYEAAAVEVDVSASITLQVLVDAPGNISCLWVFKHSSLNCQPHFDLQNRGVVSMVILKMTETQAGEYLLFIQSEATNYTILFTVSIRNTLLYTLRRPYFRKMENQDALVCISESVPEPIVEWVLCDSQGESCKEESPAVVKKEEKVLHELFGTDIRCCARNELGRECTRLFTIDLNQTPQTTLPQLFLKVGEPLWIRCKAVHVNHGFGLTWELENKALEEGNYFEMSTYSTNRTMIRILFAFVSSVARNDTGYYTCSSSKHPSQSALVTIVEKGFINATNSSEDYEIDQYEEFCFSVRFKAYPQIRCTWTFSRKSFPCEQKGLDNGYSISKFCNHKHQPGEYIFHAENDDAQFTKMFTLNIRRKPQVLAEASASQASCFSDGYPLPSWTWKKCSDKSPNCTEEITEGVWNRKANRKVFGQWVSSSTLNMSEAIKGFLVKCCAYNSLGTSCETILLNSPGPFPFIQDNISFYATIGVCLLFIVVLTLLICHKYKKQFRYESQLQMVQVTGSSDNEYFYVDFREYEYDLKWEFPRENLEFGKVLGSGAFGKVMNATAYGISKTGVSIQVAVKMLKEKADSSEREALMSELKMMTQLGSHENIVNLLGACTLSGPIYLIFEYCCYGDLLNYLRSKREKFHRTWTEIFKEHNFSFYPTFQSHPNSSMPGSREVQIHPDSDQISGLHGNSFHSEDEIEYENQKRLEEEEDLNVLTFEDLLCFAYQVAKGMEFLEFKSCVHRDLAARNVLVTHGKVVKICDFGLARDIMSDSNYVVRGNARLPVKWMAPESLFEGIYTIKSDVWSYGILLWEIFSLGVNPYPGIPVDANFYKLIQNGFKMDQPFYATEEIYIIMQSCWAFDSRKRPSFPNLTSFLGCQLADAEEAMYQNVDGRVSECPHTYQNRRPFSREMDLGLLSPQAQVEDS
In short: as §1

IC50 (FLT3-D835Y)	IC50 (FLT3-ITD)	Compound
0.0001 to 1 µM	0.0001 to 1 µM	COc1cnc2[nH]cc(-c3ccc4ncn(-c5cccc(Cl)c5)c4c3)c2c1 [P-105, 1-(3-chlorophenyl)-6-(5-methoxy-1H-pyrrolo[2,3-b]pyridin-3-yl)benzimidazole]
0.0001 to 1 µM	0.0001 to 1 µM	COc1cc(-c2cnc3[nH]cc(-c4ccc5ncn(C(C)C)c5c4)c3n2)ccn1 [P-113, 7-(3-isopropylbenzimidazol-5-yl)-2-(2-methoxy-4-pyridyl)-5H-pyrrolo[2,3-b]pyrazine]
0.0001 to 1 µM	0.0001 to 1 µM	COc1cnc2[nH]cc(-c3ccc4ncn(-c5cccc(F)c5)c4c3)c2c1 [P-128, 1-(3-fluorophenyl)-6-(5-methoxy-1H-pyrrolo[2,3-b]pyridin-3-yl)benzimidazole]
0.0001 to 1 µM	0.0001 to 1 µM	C#Cc1cnc2[nH]cc(-c3ccc4ncn(C(C)(C)C)c4c3)c2c1 [P-244, 1-tert-butyl-6-(5-ethynyl-1H-pyrrolo[2,3-b]pyridin-3-yl)benzimidazole]
0.0001 to 1 µM	0.0001 to 1 µM	COc1cc(-c2cnc3[nH]cc(-c4ccc5ncn(C6CCCN(C(C)=O)C6)c5c4)c3n2)ccn1 (stereo not shown) [P-260, 1-[3-[6-[2-(2-methoxy-4-pyridyl)-5H-pyrrolo[2,3-b]pyrazin-7-yl]benzimidazol-1-yl]-1-piperidyl]ethanone]
0.0001 to 1 µM	0.0001 to 1 µM	COc1cc(C#Cc2cnc3[nH]cc(-c4ccc5ncn(C(C)(C)C)c5c4)c3c2)ccn1 [P-240, 1-(tert-butyl)-6-(5-((2-methoxypyridin-4-yl)ethynyl)-1H-pyrrolo[2,3-b]pyridin-3-yl)-1H-benzo[d]imidazole]
0.0001 to 1 µM	0.0001 to 1 µM	FC(F)n1cc(-c2cnc3[nH]cc(-c4ccc5ncn(C6CCCNC6)c5c4)c3n2)cn1 (stereo not shown) [P-257, 2-[1-(difluoromethyl)pyrazol-4-yl]-7-[3-(3-piperidyl)benzimidazol-5-yl]-5H-pyrrolo[2,3-b]pyrazine]
0.0001 to 1 µM	0.0001 to 1 µM	COc1cnc2[nH]cc(-c3ccc4ncn(-c5ccc(F)c(C)c5)c4c3)c2c1 [P-129, 1-(4-fluoro-3-methyl-phenyl)-6-(5-methoxy-1H-pyrrolo[2,3-b]pyridin-3-yl)benzimidazole]
0.0001 to 1 µM	0.0001 to 1 µM	N#Cc1cc(-c2cnc3[nH]cc(-c4ccc5ncn(C6CCCNC6)c5c4)c3c2)ccc1F (stereo not shown) [P-208, 2-fluoro-5-[3-[3-(3-piperidyl)benzimidazol-5-yl]-1H-pyrrolo[2,3-b]pyridin-5-yl]benzonitrile]
0.0001 to 1 µM	0.0001 to 1 µM	COc1cc(C#Cc2cnc3[nH]cc(-c4ccc5ncn(C6CCCNC6)c5c4)c3c2)ccn1 (stereo not shown) [P-241, 5-[2-(2-methoxy-4-pyridyl)ethynyl]-3-[3-(3-piperidyl)benzimidazol-5-yl]-1H-pyrrolo[2,3-b]pyridine]
0.0001 to 1 µM	0.0001 to 1 µM	COc1cc(-c2cnc3[nH]cc(-c4ccc5ncn(C6CCCN(C)C6)c5c4)c3n2)ccn1 (stereo not shown) [P-271, 2-(2-methoxy-4-pyridyl)-7-[3-(1-methyl-3-piperidyl)benzimidazol-5-yl]-5H-pyrrolo[2,3-b]pyrazine]
0.0001 to 1 µM	0.0001 to 1 µM	CC(C)(CO)n1cnc2ccc(-c3c[nH]c4ncc(-c5cccc(NS(C)(=O)=O)c5)nc34)cc21 [P-115, N-[3-[7-[3-(2-hydroxy-1,1-dimethyl-ethyl)benzimidazol-5-yl]-5H-pyrrolo[2,3-b]pyrazin-2-yl]phenyl]methanesulfonamide]
0.0001 to 1 µM	0.0001 to 1 µM	COc1cc(-c2cnc3[nH]cc(-c4ccc5ncn([C@@H]6CCCNC6)c5c4)c3n2)ccn1 [P-254, 2-(2-methoxy-4-pyridyl)-7-[3-[(3R)-3-piperidyl]benzimidazol-5-yl]-5H-pyrrolo[2,3-b]pyrazine]
0.0001 to 1 µM	0.0001 to 1 µM	N#Cc1cccc(NC(=O)c2cnc3[nH]cc(-c4ccc5ncn(C6CCCNC6)c5c4)c3c2)c1 (stereo not shown) [P-219, N-(3-cyanophenyl)-3-(1-(piperidin-3-yl)-1H-benzo[d]imidazol-6-yl)-1H-pyrrolo[2,3-b]pyridine-5-carboxamide]
0.0001 to 1 µM	0.0001 to 1 µM	CC(C)(C)n1cnc2ccc(-c3c[nH]c4ncc(-c5ccnc(N6CCOCC6)c5)nc34)cc21 [P-228, 4-[4-[7-(3-tert-butylbenzimidazol-5-yl)-5H-pyrrolo[2,3-b]pyrazin-2-yl]-2-pyridyl]morpholine]
0.0001 to 1 µM	0.0001 to 1 µM	CC(C)(C)n1cnc2ccc(-c3c[nH]c4ncc(-c5cnc(N6CCOCC6)nc5)cc34)cc21 [P-266, 4-[5-[3-(3-tert-butylbenzimidazol-5-yl)-1H-pyrrolo[2,3-b]pyridin-5-yl]pyrimidin-2-yl]morpholine]
0.0001 to 1 µM	0.0001 to 1 µM	CC(C)(C)n1cnc2ccc(-c3c[nH]c4ncc(-c5cccc(N6CCCS6(=O)=O)c5)nc34)cc21 [P-231, 2-[3-[7-(3-tert-butylbenzimidazol-5-yl)-5H-pyrrolo[2,3-b]pyrazin-2-yl]phenyl]-1,2-thiazolidine 1,1-dioxide]
0.0001 to 1 µM	0.0001 to 1 µM	N#Cc1cccc(-c2cnc3[nH]cc(-c4ccc5ncn(-c6ccc(F)c(Cl)c6)c5c4)c3c2)c1 [P-210, 3-[3-[3-(3-chloro-4-fluoro-phenyl)benzimidazol-5-yl]-1H-pyrrolo[2,3-b]pyridin-5-yl]benzonitrile]
0.0001 to 1 µM	0.0001 to 1 µM	N#Cc1cccc(C(=O)Nc2cnc3[nH]cc(-c4ccc5ncn(C6CCCNC6)c5c4)c3c2)c1 (stereo not shown) [P-236, 3-cyano-N-[3-[3-(3-piperidyl)benzimidazol-5-yl]-1H-pyrrolo[2,3-b]pyridin-5-yl]benzamide]
0.0001 to 1 µM	0.0001 to 1 µM	CC(C)(C)n1cnc2ccc(-c3c[nH]c4ncc(-c5cccc(S(=O)(=O)N6CCCC6)c5)cc34)cc21 [P-220, 1-tert-butyl-6-[5-(3-pyrrolidin-1-ylsulfonylphenyl)-1H-pyrrolo[2,3-b]pyridin-3-yl]benzimidazole]
0.0001 to 1 µM	0.0001 to 1 µM	O=S(=O)(c1cccc(-c2cnc3[nH]cc(-c4ccc5ncn(C6CCCNC6)c5c4)c3c2)c1)N1CCCC1 (stereo not shown) [P-222, 1-(3-piperidyl)-6-[5-(3-pyrrolidin-1-ylsulfonylphenyl)-1H-pyrrolo[2,3-b]pyridin-3-yl]benzimidazole]
0.0001 to 1 µM	0.0001 to 1 µM	CCCS(=O)(=O)Nc1cccc(-c2cnc3[nH]cc(-c4ccc5ncn(C(C)(C)C)c5c4)c3c2)c1 [P-216, N-[3-[3-(3-tert-butylbenzimidazol-5-yl)-1H-pyrrolo[2,3-b]pyridin-5-yl]phenyl]propane-1-sulfonamide]
0.0001 to 1 µM	0.0001 to 1 µM	COc1cnc2[nH]cc(-c3ccc4ncn(Cc5ccc(F)cc5)c4c3)c2c1 [P-110, 1-[(4-fluorophenyl)methyl]-6-(5-methoxy-1H-pyrrolo[2,3-b]pyridin-3-yl)benzimidazole]
